Here are results for seven compounds from patent publication US20240342255A1, “TARGETING 3-KETODIHYDROSPHINGOSINE REDUCTASE (KDSR) IN CANCER” (UNIVERSITY OF MASSACHUSETTS, priority 2021, published 2024).

Common to all, as to assay type: cell-based
Data set [1] deals with DLD1 cells. Description: Cell morphology by light microscope / calnexin immunofluorescence.
The test system of data set [2] is DLD1 cells. Description: Cell viability (CellTiter-Glo) with exogenous 3KDS treatment. The method, then: Cell viability was measured using CellTiter-Glo 2.0 Cell Viability Assay (Promega), which measures the number of viable (metabolically active) cells in culture by quantitating the amount of ATP present. CellTiter-Glo (CTG) Reagent and 96 well plates containing the cells were equilibrated to room temperature, 20 ul of CTG reagent was added to each well of cells and incubated for 20 minutes protected from light. Luminescence was read with an integration time of 1.0 sec using the Beckman Coulter DTX880 Multimode Detector plate reader.
For determination of relative viability as depicted in figures, CTG was measured at 2 different timepoints. The first viability measurement was taken as the baseline on the day after cells were plated to 96 wells, and the second viability measurement was taken at a later timepoint (1-5 days after baseline) to calculate the fold change viable cells over time for each condition (Day X CTG/Baseline CTG). These fold change values were then divided by the fold change of the control condition (=1.0) to determine the relative viability.

Data set [3] has as its system DLD1 cells. Description: Protein aggresome staining. To be noted: 3 μM MG132, 18 hr. As to the method:
Cells were grown on coverslips coated with PDL/laminin and were stained for protein aggresomes at 9 days post lentiviral infection for CTRL or KDSR KO or 18 hr post treatment with vehicle or 3 uM MG132. Protein aggresomes were detected using the PROTOEOSTAT Aggresome detection kit (Enzo Life Sciences), which contains a dye that fluoresces upon intercalation into the cross-beta spine of protein structures found in misfolded and aggregated proteins. For aggresome staining, cells were fixed in 4% PFA, washed in PBS, and permeabilized in 0.5% TXB on ice with gentle shaking for 30 minutes. Cells were washed in PBS following permeabilization and were subsequently incubated with the Aggresome Detection Reagent diluted 1:2000 in PBS for 45 min at room temperature protected from light. Cells were washed with PBS after staining and coverslips were mounted to microscope slides using ProLong Gold Antifade Mountant containing DAPI. Cells were imaged using the Zeiss LSM700 confocal microscope and Zen Black 2012 Software.

Data set [4] has as its system DLD1 cells. Description: Western blot of K48 ubiquitinated proteins. To be noted: DLD1 cells treated with MG132 (FIG. 4C). As to the method:
(§1) Cells were washed in cold PBS and resuspended in 1% Triton-X 100 containing protease inhibitor cocktail and lysed on ice. Following cell lysis, samples were centrifuged at 13,000 rpm at 4° C. for 10 min to remove cell debris and the supernatant (cell lysate) was collected. The protein concentration of each lysate was measured by Bradford Assay. Western blot samples were prepared by diluting lysates in 6× Laemmli Buffer and boiled at 95° C. for 10 min. Samples were loaded to polyacrylamide gels at equal protein concentrations and analyzed by standard SDS-PAGE western blotting techniques. Protein levels were detected using HRP-conjugated secondary antibodies and chemiluminescent substrates (Pierce ECL or Pico PLUS).
In general terms: In western blotting, separated proteins are transferred to a membrane and probed.

The subject of data set [5] is DLD1 cells. Description: Lipid free viability assay. The conditions noted are these: 15 μM myriocin, 72 hr, 10% charcoal stripped serum (FIG. 1F). As to the method: DLD1 cells were grown in media with 10% FBS (normal growth condition) or 10% charcoal stripped serum (lipid free condition) for 1 week prior to lentiviral infection for CRISPR-mediated gene KO. Cells were infected in 6 wells, selected with puromycin, and plated to 96 wells as described previously in the appropriate serum conditions throughout the entirety of the experiment. Baseline CTG was measured at day 7 post infection, and subsequently at day 10 post infection. For the myriocin treated condition, CTRL cells were treated with 15 μM myriocin at day 7 post infection and were treated for 72 hr at the time of day 10 CTG measurement. Viability was calculated over the course of 3 days of growth and measured relative to CTRL untreated condition.

Data set [6] relates to DLD1 cells. Description: LC-MS quantification of 3KDS in cultured cells. The method, then:
The levels of 3-ketodihydrosphingosine (3KDS) were quantified in both cells grown in culture and in tumor tissues from the in vivo xenograft experiment. Lipid analysis was performed at the UCSD Lipidomics Core^17. For the in vitro experiment, DLD1 cells were infected for lentiviral transduction of pLCv2 with nontargeting CTRL guide, KDSR g1, or SPTLC1 g1. Cells were selected with puromycin for 5 days and were treated with the appropriate conditions (vehicle, 50 uM palmitate, 15 uM myriocin) at 6 days post infection. Cells were trypsinized, quickly washed 2× in cold PBS, centrifuged, and the cell pellet was collected for analysis at 8 days post lentiviral infection and 48 hr post treatment. 3KDS quantification was normalized to the protein content of n=3 independently prepared cell extracts for each condition.
Samples were extracted with DCM/MeOH (1:1) and 1× internal standards were added to extracts. Samples were vortexed, sonicated for 10 minutes, and then centrifuged at 5000 rpm for 5 min. Samples were re-extracted, combined, and dried down in a speed vac. Samples were run on the ACQUITY UPLC System (Waters) on a Phenomenex Kinetex C18 column. Mass spectrometry analysis was performed on the Sciex 6500 Qtrap mass spectrometer and data were analyzed using Sciex Analyst and Multiquant software packages.

In data set [7] the test system is DLD1 cells. Description: Myriocin rescue and palmitate synergy viability experiments in KDSR KO cells. As to the method:
Cells were plated to 6 wells and infected with lentiviruses containing pLCv2 CTRL or guides targeting KDSR. Cells were selected with puromycin for 4-5 days and were then counted and plated to 96 well plates at 6 days post lentiviral infection at 600-800 cells/well in technical triplicate or quadruplicate. Baseline cell viability was read at 7 days post infection, at which time the other 96 well plates (to be read at later timepoints) were treated with DMSO vehicle or 2 uM myriocin for rescue experiments or with EtOH vehicle or 50 uM palmitate for synergy experiments. For myriocin rescue experiments, subsequent CTG readings were taken at days 3 and 5 post treatment (10 and 12 days post infection) to determine the effect of SPT inhibition on KDSR KO toxicity. For synergy experiments, subsequent CTG readings were taken at 24, 48, and 72 hr post treatment (8, 9, and 10 days post infection) to measure the effect of KDSR KO and palmitate treatment on cell viability relative to CTRL vehicle treated cells.
To determine whether KDSR KO and 50 uM palmitate have a synergistic toxic effect on cells (FIG. 2C), we used the Bliss Independence Model. […]

Data set [8] deals with DLD1 cells. Description: LC-MS quantification of sphingomyelin and ceramide after CRISPR-Cas9 gene KO. To be noted: biological replicates (1)-(3); for Total (RATIO), Cer + SM by LC-MS / Cer (RATIO), total ceramide level by LC-MS / SM (RATIO), total sphingomyelin level by LC-MS: 8 days post lentiviral infection; for Cer (RATIO), total ceramide level by LC-MS / SM (RATIO), total sphingomyelin level by LC-MS: normalized intensities relative to internal standards per mg protein. As to the method: DLD1 cells were plated to 6 wells and infected for lentiviral transduction of lentiCRISPR v2 with nontargeting CTRL guide, KDSR g1, or SPTLC1 g1, with each condition infected in biological triplicate. Cells were selected with puromycin for 5 days and collected for analysis at 8 days post lentiviral infection. Cells were trypsinized, quickly washed 2× in cold PBS, centrifuged, and the cell pellet was collected for analysis. Lipid analysis was performed at the UCSD Lipidomics Core^17. For quantification of sphingomyelin and ceramide species, samples were extracted via Butanol-Methanol (BUME) with 100 ul/sample. The lipid (top) layer was collected, solvent was removed, and samples were reconstituted in 100 ul LC solvent (18:1:1, IPA/DCM/MeOH). Samples were run on Reverse Phase-Ultra Performance Liquid Chromatography (Thermo Vanquish UPLC) on the Cortecs T3 C18 column. Mass spectrometry was performed on the Thermo Q Exactive Mass Spectrometer with MS/MS data dependent acquisition scan mode and analyzed with Lipid Data Analyzer (LDA) and LipidSearch software. All data are expressed as normalized intensities relative to exactly measured internal standards and constitute relative abundances per mg protein. For the identification of each lipid molecular species including its exact fatty acid composition, we used MS/MS footprinting techniques. Details of methods and nomenclature used were adapted from a previous study^18.
Total sphingomyelin levels under each condition were calculated as the sum of 121 analytes and total ceramide levels as the sum of 81 analytes. The ratio of total sphingomyelin and ceramide levels in KDSR and SPTLC1 KO cells were calculated relative to CTRL cells as shown in FIG. 1e. The select species of sphingomyelins and ceramides shown in Extended Data FIG. 2 represent the top 10 most abundant species that were detected in all 3 biological replicate samples of the CTRL condition to show the effect of SPTLC1 and KDSR KO on the most abundant sphingolipids compared to CTRL.

In a further data set the test system is KDSR. Description: Western blot of KDSR protein after CRISPR/Cas9 targeting in non-cancerous cell lines. To be noted: seven non-cancerous cell lines (THLE3, CCD841CON, CCD18Lu, HIEC6, HS67, GM05565, GM02037), FIGS. 10A-10G. As to the method: as §1
Western blots were performed to confirm that KDSR expression was reduced or eliminated in the cell line after CRISPR/Cas9 KO of KDSR. […] For each experiment, actin served as a loading control.

Values joined by “and” are separate entries in the source; they are usually repeats but may differ in a detail not shown here. Identical values can stand only once. Residues, ends and D or L forms follow the SMILES beside them. *: point of attachment. Cbz = O=C(OCc1ccccc1)*

As for `CCCCCCCCCCCCCCCC(=O)C(N)CO` (stereo not drawn) [3KDS, 3-ketodihydrosphingosine], in the data set with DLD1 cells [1] (wildtype DLD1 cells, 10 μM 3KDS, 24 hr (FIG. 2G)), the “cell morphology after 3KDS treatment” value is “aberrant ‘vacuolar’ morphology”. Further, the “effect of exogenous 3KDS on cell viability” value with DLD1 cells [2] (DLD1 cells, various doses, 24 hr (FIG. 2B)) is given as “cell toxicity”. In addition, the “toxicity of 3KDS in KDSR KO cells” value in the data set with DLD1 cells [2] (KDSR g1 and g2 KO DLD1 cells, 5 μM 3KDS, 24 hr (FIG. 6)) was “even more toxic”.

Regarding `CC(C)C[C@@H](C=O)NC(=O)[C@H](CC(C)C)NC(=O)[C@H](CC(C)C)NC(=O)OCc1ccccc1` [MG132, MG-132] (Cbz-Leu-Leu-Leu-aldehyde), the protein aggresome formation entry in the data set on DLD1 cells [3] is “induced formation of protein aggresomes”. In the data set on DLD1 cells [1] (DLD1 cells, 3 μM MG132, 18 hr, light microscope and calnexin IF (FIG. 4D)), the “morphological phenotype / ER structure” value is “strongly resembled the aberrant enlarged ER structures”. Besides, the “levels of K48 ubiquitinated proteins” value in the data set with DLD1 cells [4] is recorded as “accumulation of K48 ubiquitinated proteins”.

Turning to `CCCCCCC(=O)CCCCCC/C=C/C[C@@H](O)[C@H](O)[C@@](N)(CO)C(=O)O` [myriocin, Myriocin], the “morphology of KDSR KO cells under SPT inhibition” value in the data set on DLD1 cells [1] (KDSR KO DLD1 cells, 15 μM myriocin, 48 hr (FIG. 2G)) is “rescued the aberrant morphological phenotype”. For the same compound, in the data set with DLD1 cells [5], the “viability in lipid-free serum” value is given as “detrimental to cancer cell viability”. Besides, the “3KDS accumulation in KDSR KO cells under SPT inhibition” value in the data set with DLD1 cells [6] (KDSR KO DLD1 cells, 15 μM myriocin, 48 hr (FIG. 2F)) is “prevented 3KDS accumulation”. Further, the “effect of myriocin on viability of KDSR KO cells” value with DLD1 cells [7] (2 μM myriocin, 72 hr (FIG. 2D)) is on record as “rescued against the loss of viability”.

As to `CCCCCCCCCCCCCCCC(=O)O` [palmitate, Palmitic Acid], the “accumulation of 3KDS” value in the data set on DLD1 cells [6] (KDSR KO DLD1 cells treated with 50 μM palmitate, 48 hr, relative to CTRL vehicle (FIG. 2F)) was found to be 800 fold. Also, the “effect of palmitate on viability of KDSR KO cells (Bliss independence)” value in the data set with DLD1 cells [7] (50 μM palmitate, 48 hr (FIG. 2C)) was “synergized with the toxic effect of KDSR KO”.

Regarding “KDSR g1: CRISPR-Cas9 guide RNA targeting KDSR, TGTGTGCAAACCAGAACAGG, SEQ ID NO: 4 (listed as DNA, chemistry not given here; listed as Homo sapiens)”, in the data set on DLD1 cells [8], the “Total (RATIO), Cer + SM by LC-MS” value was 535.9 and 709.0 and 681.9; the “Cer (RATIO), total ceramide level by LC-MS” value is 67.9 and 101.4 and 99.2; the “SM (RATIO), total sphingomyelin level by LC-MS” value was 468.0 and 607.6 and 582.7; the “Cer (Percentage of total)” value was 12.7% and 14.3% and 14.5%. For the same compound, in the data set on DLD1 cells [8], the “SM (Percentage of total)” value was 87.3% and 85.7% and 85.5%. Besides, the “KDSR expression after CRISPR/Cas9 targeting” value in the data set with KDSR is given as “eliminated or substantially reduced”.

Turning to “KDSR g2: CRISPR-Cas9 guide RNA targeting KDSR, GGCAAACTTGGATGCAGAGT, SEQ ID NO: 5 (listed as DNA, chemistry not given here; listed as Homo sapiens)”, in the data set on KDSR, the “KDSR expression after CRISPR/Cas9 targeting” value is “eliminated or substantially reduced”.

For “SPTLC1 g1: CRISPR-Cas9 guide RNA targeting SPTLC1, GTGCTACTCACCTTAACCCT, SEQ ID NO: 2 (expressed or natural sequence; listed as Homo sapiens)”, in the data set with DLD1 cells [8], the “Total (RATIO), Cer + SM by LC-MS” value was 720.1 and 485.8 and 520.4; the “Cer (RATIO), total ceramide level by LC-MS” value was 66.2 and 36.6 and 66.9; the “SM (RATIO), total sphingomyelin level by LC-MS” value is 653.9 and 449.2 and 453.5; the “Cer (Percentage of total)” value was 9.2% and 7.5% and 12.9%. In the data set with DLD1 cells [8], the “SM (Percentage of total)” value was 90.8% and 92.5% and 87.1%.
